The values below come from patent publication US10022451B2, “Encapsulated agents and methods of making and using thereof” (University of Georgia Research Foundation, Inc., priority 2014, dated 2018).

For data set [1] the following is noted: in tetrahydrofuran; cited from earlier work.
Data set [2] in a line: Stability of P-RFRTs in PBS and at pH 2. The settings on record: same concentration. The format is physicochemical.

In the case of “zinc hexadecafluoro-phthalocyanine [ZnF16Pc]”, the ΦΔ in data set [1] is 0.85. Also, in data set [2], the “Stability in PBS” value is reported as “quickly precipitated out due to its poor solubility”.
